In patent publication US11477981B2, “Ice nucleation formulations for cryopreservation and stabilization of biologics” (The General Hospital Corporation, priority 2016, dated 2022):

Tests used:
[1] = Ice nucleation kinetics of picoliter-sized drops of D2O and H2O mixtures (droplet technology); type: physicochemical
Description: FIG. 7. Probability distribution of ice nucleation temperature using nanodroplet technology, wherein condition 1 is pure heavy water containing 0.1 g/L SNOMAX, condition 2 is pure water containing 0.1 g/L SNOMAX, condition 3 is pure heavy water, and condition 4 is pure water.
This disclosure has also systematically investigated the ice nucleation kinetics of picoliter-sized drops of heavy water (e.g., D2O or T2O) and light water (H2O) mixtures with freeze-dried P. syringae. […] The disclosure further investigated the effects of commonly used cryoprotectants such as ethylene glycol, propylene glycol and trehalose on the freezing characteristics of D2O and H2O mixtures. […] Furthermore, several cryoprotectants are found to depress the freezing phenomenon. Both the homogeneous and heterogeneous freezing temperatures of these aqueous solutions depend on the water activity and are independent of the nature of solute.
A self-nucleating and preservation formulation comprising heavy water and ice nucleating agents was developed with broad applications in the field of cryopreservation. […]

[2] = test system: animals and animal cells; conditions: at normal body temperatures; cited from earlier work
[3] = background statement; cited from earlier work

Molecule	shift of the ice nucleation kinetics profile per 25% (v/v) increase of D2O concentration ([1]; D2O+H2O mixtures containing 1 mg/ml SNOMAX)	median nucleation temperature ([1]; pure D2O, no ice nucleating agent, droplet technology)	concentration that can be toxic [2]	temperature at which water freezes [3]
[2H]O[2H] [D2O]	shifts by about one degree	−32.1 °C	more than 20%	
ice nucleation active (INA) protein: ice nucleation active protein InaZ of Pseudomonas syringae (UniProt P06620-1; SEQ ID NO: 1) (protein, listed as Pseudomonas syringae) MNLDKALVLRTCANNMADHCGLIWPASGTVESRYWQSTRRHENGLVGLLWGAGTSAFLSVHADARWIVCEVAVADIISLEEPGMVKFPRAEVVHVGDRISASHFISARQADPASTSTSTLTPMPTAIPTPMPAVASVTLPVAEQARHEVFDVASVSAAAAPVNTLPVTTPQNVQTATYGSTLSGDNHSRLIAGYGSNETAGNHSDLIAGYGSTGTAGSDSWLVAGYGSTQTAGGDSALTAGYGSTQTAREGSNLTAGYGSTGTAGSDSSLIAGYGSTQTSGGDSSLTAGYGSTQTAQEGSNLTAGYGSTGTAGSDSSLIAGYGSTQTSGGDSSLTAGYGSTQTAQEGSNLTAGYGSTGTAGVDSSLIAGYGSTQTSGSDSALTAGYGSTQTAQEGSNLTAGYGSTGTAGSDSSLIAGYGSTQTSGSDSSLTAGYGSTQTAQEGSILTAGYGSTGTAGVDSSLIAGYGSTQTSGSDSALTAGYGSTQTAQEGSNLTAGYGSTGTAGADSSLIAGYGSTQTSGSESSLTAGYGSTQTAREGSTLTAGYGSTGTAGADSSLIAGYGSTQTSGSESSLTAGYGSTQTAQQGSVLTSGYGSTQTAGAASNLTTGYGSTGTAGHESFIIAGYGSTQTAGHKSILTAGYGSTQTARDGSDLIAGYGSTGTAGSGSSLIAGYGSTQTASYRSMLTAGYGSTQTAREHSDLVTGYGSTSTAGSNSSLIAGYGSTQTAGFKSILTAGYGSTQTAQERTSLVAGYGSTSTAGYSSSLIAGYGSTQTAGYESTLTAGYGSTQTAQENSSLTTGYGSTSTAGYSSSLIAGYGSTQTAGYESTLTAGYGSTQTAQERSDLVTGYGSTSTAGYASSLIAGYGSTQTAGYESTLTAGYGSTQTAQENSSLTTGYGSTSTAGFASSLISGYGSTQTAGYKSTLTAGYGSTQTAEYGSSLTAGYGSTATAGQDSSLIAGYGSSLTSGIRSFLTAGYGSTLIAGLRSVLIAGYGSSLTSGVRSTLTAGYGSNQIASYGSSLIAGHESIQVAGNKSMLIAGKGSSQTAGFRSTLIAGAGSVQLAGDRSRLIAGADSNQTAGDRSKLLAGNNSYLTAGDRSKLTGGHDCTLMAGDQSRLTAGKNSVLTAGARSKLIGSEGSTLSAGEDSILIFRLWDGKRYRQLVARTGENGVEADIPYYVNEDDDIVDKPDEDDDWIEVK				−4 to −2 °C
